# Measurements as given in US20140057323A1, “ENHANCED CELLODEXTRIN METABOLISM” (The Board of Trustees of the University of Illinois, priority 2011, published 2014).
# Key:
# [1] = molecular target: S. cerevisiae hexokinase Hxk2 (NP_011261) (Saccharomyces cerevisiae, UniProt P04807); test: Effect of cellobiose on activity of purified hexokinase Hxk2; assay type: biochemical; details: read-out: reduction of hexokinase activity by cellobiose
# Procedure: (§1) The amount of hexokinase activity in cell extracts was determined by coupling the production of glucose-6-phosphate to the reduction of NADP^+ by glucose-6-phosphate dehydrogenase. 10 μg of cell extract was added to 1 mL of an assay mixture consisting of 50 mM Tris-HCl [pH 8.0 at 30° C.], 13.3 mM MgCl2, 540 μM ATP, 20 μM NADP^+, 1 U S. cerevisiae glucose-6-phosphate dehydrogenase, and 112 mM glucose. The number of pmol of glucose-6-phosphate produced per second was calculated by multiplying the rate of increase at 340 nm by 1.85×10^3, a conversion that was established from a glucose-6-phosphate standard curve.
# (§2) The Hxk1 (Accession: NP_116711), Hxk2 (Accession: NP_011261), and Glk1 (Accession: NP_009890) genes were expressed and purified in E. coli. First, the genes were cloned into the PmlI and XhoI restriction sites of the expression plasmid pET302. Hxk1 gene was amplified using the following primers: […]
# (§3) These constructs were transformed into the BL21(DE3) strain of E. coli, and the proteins were expressed and purified using Nickel-NTA agarose beads from Qiagen following the protocol for native batch purification provided by Qiagen. […] Protein concentrations were determined by the absorbance at 280 nm using extinction coefficients of 45840 M^−1 cm^−1, 45840 M^−1 cm^−1 and 30370 M^−1 cm^−1, for Hxk1, Hxk2 and Glk1, respectively. […]
# [2] = molecular target: S. cerevisiae hexokinase Glk1 (NP_009890) (Saccharomyces cerevisiae, UniProt P17709); test: Effect of cellobiose on activity of purified hexokinase Glk1; assay type: biochemical; details: read-out: reduction of hexokinase activity by cellobiose
# Chain of S. cerevisiae hexokinase Glk1 (NP_009890) (P17709 whole entry): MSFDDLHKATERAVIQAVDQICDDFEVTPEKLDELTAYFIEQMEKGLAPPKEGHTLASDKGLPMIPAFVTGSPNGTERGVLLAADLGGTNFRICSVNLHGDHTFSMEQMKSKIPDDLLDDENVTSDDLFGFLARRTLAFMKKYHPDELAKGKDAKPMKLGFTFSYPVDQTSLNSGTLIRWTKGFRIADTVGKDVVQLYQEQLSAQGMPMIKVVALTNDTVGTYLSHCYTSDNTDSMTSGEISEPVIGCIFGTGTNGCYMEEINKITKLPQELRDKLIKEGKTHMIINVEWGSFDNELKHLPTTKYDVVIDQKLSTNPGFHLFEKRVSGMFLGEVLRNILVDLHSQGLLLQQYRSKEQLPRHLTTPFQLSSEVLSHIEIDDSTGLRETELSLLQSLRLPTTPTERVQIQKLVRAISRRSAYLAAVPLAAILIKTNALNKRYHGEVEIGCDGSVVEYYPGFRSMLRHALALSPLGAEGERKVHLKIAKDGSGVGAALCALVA
# Procedure: as §1, §2, §3
# [3] = molecular target: T1, Neurospora crassa cellodextrin transporter CDT-1 (NCU00801), wild type, SEQ ID NO: 9, GFP-tagged, in S. cerevisiae D452-2 (Neurospora crassa, UniProt Q7SCU1); test: Transporter kinetics, [3H]-cellobiose uptake into yeast; assay type: cell-based; details: CDT-1 WT
# T1 construct: [3H]-cellobiose uptake into whole cells
# T1 sequence (Q7SCU1 1-579): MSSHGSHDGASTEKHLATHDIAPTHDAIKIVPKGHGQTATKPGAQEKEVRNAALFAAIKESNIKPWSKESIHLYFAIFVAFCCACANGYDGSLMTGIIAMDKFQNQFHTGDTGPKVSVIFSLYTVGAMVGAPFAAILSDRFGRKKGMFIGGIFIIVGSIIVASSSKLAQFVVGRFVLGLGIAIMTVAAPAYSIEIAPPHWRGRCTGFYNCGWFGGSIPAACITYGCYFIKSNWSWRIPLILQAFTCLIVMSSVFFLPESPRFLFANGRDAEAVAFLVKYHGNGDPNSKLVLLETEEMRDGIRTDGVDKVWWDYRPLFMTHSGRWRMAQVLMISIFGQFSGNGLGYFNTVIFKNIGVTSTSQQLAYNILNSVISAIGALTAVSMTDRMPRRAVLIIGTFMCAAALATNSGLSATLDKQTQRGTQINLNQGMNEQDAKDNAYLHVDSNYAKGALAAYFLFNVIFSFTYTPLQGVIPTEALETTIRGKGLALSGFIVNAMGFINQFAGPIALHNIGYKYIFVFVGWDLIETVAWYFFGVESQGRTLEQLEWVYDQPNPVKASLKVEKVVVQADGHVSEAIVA
# Procedure: Briefly, the yeast strain D452-2 transformed with mutant transporters was set-up at an OD (600 nm) of −0.2 in 50 mL of DOB-uracil and grown to an OD (600 nm) of ˜1. Cells were then harvested by centrifugation, washed 3× with 10 mLs of transport buffer (30 mM MES-NaOH [pH 5.6], 50 mM EtOH), and resuspended to a final OD (600 nm) of ˜40 in transport buffer. The GFP fluorescence of 100 μL of these cells was determined with excitation/emission wavelengths of 485/535 nm Beckman Coulter Paradigm™ plate reader. […] Reactions were stopped by spinning cells through the oil for 1 minute at 17,000 g, tubes were frozen in ethanol/dry ice, and tube-bottoms containing the cell-pellets were clipped off into 1 mL of 0.5 M NaOH. The pellets were solubilized overnight, 5 mL of Ultima Gold scintillation fluid added, and CPM determined in a Tri-Carb 2900TR scintillation counter.
# [4] = molecular target: S. cerevisiae hexokinase Hxk1 (NP_116711) (Saccharomyces cerevisiae, UniProt P04806); test: Effect of cellobiose on activity of purified hexokinase Hxk1; assay type: biochemical; details: Hxk1, up to 184 mM cellobiose
# Chain of S. cerevisiae hexokinase Hxk1 (NP_116711) (P04806 whole entry): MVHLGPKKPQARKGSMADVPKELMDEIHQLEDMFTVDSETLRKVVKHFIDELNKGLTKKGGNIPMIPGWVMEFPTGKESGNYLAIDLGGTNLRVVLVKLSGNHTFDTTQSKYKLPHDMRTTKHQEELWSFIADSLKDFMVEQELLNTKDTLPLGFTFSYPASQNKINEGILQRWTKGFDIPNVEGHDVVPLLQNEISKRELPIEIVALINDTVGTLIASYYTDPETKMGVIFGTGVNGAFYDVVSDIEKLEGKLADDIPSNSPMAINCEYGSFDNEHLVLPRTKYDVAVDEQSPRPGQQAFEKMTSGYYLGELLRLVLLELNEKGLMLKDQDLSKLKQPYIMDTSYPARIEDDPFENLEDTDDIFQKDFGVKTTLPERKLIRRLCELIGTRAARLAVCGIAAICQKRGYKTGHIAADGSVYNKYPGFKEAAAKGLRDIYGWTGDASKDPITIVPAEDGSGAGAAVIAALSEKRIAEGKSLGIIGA
# Procedure: as §1, §2, §3
# Chain of S. cerevisiae hexokinase Hxk2 (NP_011261) (P04807 whole entry): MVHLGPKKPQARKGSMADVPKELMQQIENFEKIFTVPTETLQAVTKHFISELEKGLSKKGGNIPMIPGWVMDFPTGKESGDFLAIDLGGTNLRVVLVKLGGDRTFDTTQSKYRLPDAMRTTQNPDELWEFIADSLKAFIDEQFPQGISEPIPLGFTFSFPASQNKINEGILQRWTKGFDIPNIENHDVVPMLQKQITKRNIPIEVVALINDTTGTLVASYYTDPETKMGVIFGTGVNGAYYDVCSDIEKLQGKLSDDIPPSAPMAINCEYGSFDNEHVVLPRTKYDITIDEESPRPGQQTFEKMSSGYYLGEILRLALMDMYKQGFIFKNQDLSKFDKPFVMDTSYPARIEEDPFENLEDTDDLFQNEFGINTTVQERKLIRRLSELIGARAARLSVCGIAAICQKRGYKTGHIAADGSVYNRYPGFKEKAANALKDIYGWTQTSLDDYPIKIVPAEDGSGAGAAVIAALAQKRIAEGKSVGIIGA
smiles,measurement,setting,value
OC[C@H]1O[C@@H](O[C@H]2[C@H](O)[C@@H](O)C(O)O[C@@H]2CO)[C@H](O)[C@@H](O)[C@@H]1O (stereo partly shown) [cellobiose],inhibition at 184000 µM,[1],~20%
same,inhibition at 184000 µM,[2],~20%
same,Vmax,[3],0.60 ± 0.03 µmol/s
same,effect of cellobiose on hexokinase activity,[4],unaffected
